Results published in ChEMBL document CHEMBL1135565, “Synthesis of base-modified dihydropacidamycins” (2002).

Key:
Format in all cases: functional
Escherichia coli = experiment: Minimum inhibitory concentration against Escherichia coli
Staphylococcus aureus = experiment: Minimum inhibitory concentration against Staphylococcus aureus
Pseudomonas aeruginosa = experiment: Minimum inhibitory concentration against Pseudomonas aeruginosa
Pasteurella multocida = experiment: Minimum inhibitory concentration against Pasteurella multocida

Measured: MIC

Cc1c(C)n([C@@H]2O[C@@H](CNC(=O)[C@@H](NC(=O)[C@H](C)NC(=O)N[C@@H](Cc3c[nH]c4ccccc34)C(=O)O)[C@H](C)N(C)C(=O)[C@@H](C)N)C[C@H]2O)c(=O)[nH]c1=O
> 512 µg/mL: Escherichia coli | Staphylococcus aureus | Pseudomonas aeruginosa | Pasteurella multocida

COc1cccn([C@@H]2O[C@@H](CNC(=O)[C@@H](NC(=O)[C@H](C)NC(=O)N[C@@H](Cc3c[nH]c4ccccc34)C(=O)O)[C@H](C)N(C)C(=O)[C@@H](C)N)C[C@H]2O)c1=O
> 512 µg/mL: Escherichia coli | Staphylococcus aureus | Pseudomonas aeruginosa | Pasteurella multocida

Cc1cc(=O)[nH]c(=O)n1[C@@H]1O[C@@H](CNC(=O)[C@@H](NC(=O)[C@H](C)NC(=O)N[C@@H](Cc2c[nH]c3ccccc23)C(=O)O)[C@H](C)N(C)C(=O)[C@@H](C)N)C[C@H]1O
> 512 µg/mL: Escherichia coli | Staphylococcus aureus | Pseudomonas aeruginosa | Pasteurella multocida

C[C@H](NC(=O)N[C@@H](Cc1c[nH]c2ccccc12)C(=O)O)C(=O)N[C@H](C(=O)NC[C@H]1C[C@@H](O)[C@H](n2cc(Cl)c(=O)[nH]c2=O)O1)[C@H](C)N(C)C(=O)[C@@H](C)N
> 512 µg/mL: Escherichia coli | Staphylococcus aureus | Pseudomonas aeruginosa | Pasteurella multocida

C[C@H](NC(=O)N[C@@H](Cc1c[nH]c2ccccc12)C(=O)O)C(=O)N[C@H](C(=O)NC[C@H]1C[C@@H](O)[C@H](n2cc(F)c(=O)[nH]c2=O)O1)[C@H](C)N(C)C(=O)[C@@H](C)N
> 512 µg/mL: Escherichia coli | Staphylococcus aureus | Pseudomonas aeruginosa | Pasteurella multocida

C[C@H](NC(=O)N[C@@H](Cc1c[nH]c2ccccc12)C(=O)O)C(=O)N[C@H](C(=O)NC[C@H]1C[C@@H](O)[C@H](n2ccc(=O)n(C)c2=O)O1)[C@H](C)N(C)C(=O)[C@@H](C)N
> 512 µg/mL: Escherichia coli | Staphylococcus aureus | Pseudomonas aeruginosa | Pasteurella multocida

Cc1cn([C@@H]2O[C@@H](CNC(=O)[C@@H](NC(=O)[C@H](C)NC(=O)N[C@@H](Cc3c[nH]c4ccccc34)C(=O)O)[C@H](C)N(C)C(=O)[C@@H](C)N)C[C@H]2O)c(=O)[nH]c1=O
> 512 µg/mL: Escherichia coli | Staphylococcus aureus | Pseudomonas aeruginosa | Pasteurella multocida
